In patent US20240182460A1, “ALLOSTERIC CHROMENONE INHIBITORS OF PHOSPHOINOSITIDE 3-KINASE (PI3K) FOR THE TREATMENT OF DISEASE” (PETRA PHARMA CORPORATION, priority 2022, published 2024):

Assays:
PI3Kα E545K [1] = molecular target: T1, PI3Kα E545K (Homo sapiens, UniProt P42336, E545K); assay: PI3Kα E545K mutant in vitro cell based assay, MCF-7 cells; details: MCF-7 cell line, 0% FBS, 3 hours treatment
Source text: PI3K-Alpha Kinase (PI3Kα) Activity: Wild-Type PI3Kα, H1047R Mutant PI3Kα, and E545K Mutant PI3Kα In Vitro Cell Based Assays and Determination of IC50 Values for Inhibitors
The MDA-MB-453 (ATCC-HTB-131) cell line (PI3Kα H1047R) and MCF-7 (ATCC-HTB-22) cell line (PI3Kα E545K), MDA-MB-361 (ATCC-HTB-27) cell line (PI3Kα E545K), and SKBR3 (ATCC-HTB-30) cell line (wild type PI3Kα) were obtained from the American Type Culture Collection (Manassas, VA). MDA-MB-453 cells were maintained in Dulbecco's Modified Eagle Media (DMEM, Gibco 12430) supplemented with 10% Fetal Bovine Serum, heat inactivated (FBS HI, Gibco 10082), 1× non-essential amino acids (NEAA, Gibco 11140), 1 mM sodium pyruvate (Gibco 11360) and 1× Anti-Anti (Gibco 15240). MCF-7 cells were maintained in Minimum Essential Media (MEM) (Gibco 11095) supplemented with 10% Fetal Bovine Serum, heat inactivated (FBS HI, Gibco 10082), 1× non-essential amino acids (NEAA, Gibco 11140), 1 mM sodium pyruvate (Gibco 11360), 1× Anti-Anti (Gibco 15240) and 10 μg/mL human insulin (Sigma I 9278). MDA-MB-361 cells were maintained in Dulbecco's Modified Eagle Media (DMEM, Gibco 12430) supplemented with 20% Fetal Bovine Serum, heat inactivated (FBS HI, Gibco 10082), 1× non-essential amino acids (NEAA, Gibco 11140), 1 mM sodium pyruvate (Gibco 11360) and 1× Anti-Anti (Gibco 15240). SKBR3 cells were maintained in McCoy's 5A (Gibco 16600) supplemented with 10% Fetal Bovine Serum, heat inactivated (FBS HI, Gibco 10082), and 1× Anti-Anti (Gibco 15240). Cultures were maintained in a humidified incubator at 37° C. under 5% CO2/95% air.
For compound testing in 0% FBS, MDA-MB-453, MCF-7 and SKBR3 cells were seeded at a density of 1.5×10^4, 1.0×10^4, and 1.0×10^4 cells, respectively, per well in white 384-well plates in 20 μl of Minimum Essential Media (MEM) assay media with 1×NEAA, 1 mM sodium pyruvate, and 1 μg/mL human insulin (Sigma 19278) (Assay Medium); while MDA-MB-361 cells were seeded at a density of 1.5×10^4 per well in white 384-well plates in 20 μl Assay Medium without insulin. After plating, cells were allowed to attach overnight. Compounds dissolved in 10 mM stock solutions in DMSO were serially diluted 1:3 in DMSO to generate a 10-point dilution series and plated using an acoustic liquid handler system (Echo 550 Series Liquid Handler, Labcyte). A 5× intermediate compound dilution plate in MEM with 1×NEAA and 1 mM sodium pyruvate (150 μM starting compound concentration in 1.5% DMSO) was then prepared. Five μl of the intermediate serially diluted compounds were added to the cell plate to final concentrations ranging from […] in 0.3% DMSO. 0.3% DMSO alone was used to establish the maximum (MAX) signal and GDC-0032 at a final concentration of 1 μM was used as a reference compound for the minimum (MIN) signal. After 3 hours treatment, the medium was removed, and the cells were lysed in 10 μL of 1× SureFire Lysis buffer with shaking for 10 minutes at room temperature. The Acceptor Mix (Reaction Buffer 1+Reaction Buffer 2+Activation Buffer+SureFire Ultra Acceptor Beads) was prepared by diluting Activation buffer 25-fold in combined Reaction Buffer 1 and Reaction Buffer 2.
The Acceptor beads were diluted 50-fold in the combined Reaction Buffers. Five μL of Acceptor Mix was added to each well, the plate was sealed and covered with foil and incubated for 1 hour at room temperature. The Donor Mix (dilution buffer+SureFire Ultra Donor Beads) was prepared by diluting Donor Beads 50-fold in dilution buffer. Five μL of the Donor Mix was added to each well and the plate sealed and covered with foil and incubated for 1-2 hours at room temperature in the dark. The plates were read on a Neo2 plate reader instrument from Biotek using standard AlphaLisa settings.
Compounds were tested in duplicate and the % inhibition at each compound concentration was used to generate two dose response curves. One IC50 was generated using average % inhibition at each compound concentration. […]

[2] = Metabolic stability and intrinsic clearance in human liver microsomes (MICS); format: in vitro ADME; details: human, microsomes, pH 7.4
In short: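 Test compound (1 μM final) incubated at 37° C with liver microsomes (0.5 mg/mL protein) in 100 mM phosphate buffer pH 7.4, with 1 mM NADPH or without cofactor; sampled at 0.5–60 min, quenched with cold acetonitrile. Parent remaining quantified by LC-MS/MS; t1/2 from ln-% remaining slope converted to CLint (μL/min/mg protein).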

PI3Kα E545K [3] = molecular target: T1, PI3Kα E545K; assay: PI3Kα E545K mutant in vitro cell based assay, MDA-MB-361 cells; parameters: MDA-MB-361 (ATCC-HTB-27) cell line (PI3Kα E545K); host or cells: MDA-MB-361; details: MDA-MB-361 cell line, 0% FBS, no insulin, 3 hours treatment
In short: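 MDA-MB-361 cells (PI3Kα E545K) seeded in serum-free MEM assay medium without insulin, attached overnight, then treated 3 h with compound (10-point 1:3 series, 0.3% DMSO). AlphaLISA SureFire readout of lysates. IC50 by 4-parameter fit, normalized to DMSO (max) and 1 μM GDC-0032 (min).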

T1 sequence (P42336 whole entry E545K): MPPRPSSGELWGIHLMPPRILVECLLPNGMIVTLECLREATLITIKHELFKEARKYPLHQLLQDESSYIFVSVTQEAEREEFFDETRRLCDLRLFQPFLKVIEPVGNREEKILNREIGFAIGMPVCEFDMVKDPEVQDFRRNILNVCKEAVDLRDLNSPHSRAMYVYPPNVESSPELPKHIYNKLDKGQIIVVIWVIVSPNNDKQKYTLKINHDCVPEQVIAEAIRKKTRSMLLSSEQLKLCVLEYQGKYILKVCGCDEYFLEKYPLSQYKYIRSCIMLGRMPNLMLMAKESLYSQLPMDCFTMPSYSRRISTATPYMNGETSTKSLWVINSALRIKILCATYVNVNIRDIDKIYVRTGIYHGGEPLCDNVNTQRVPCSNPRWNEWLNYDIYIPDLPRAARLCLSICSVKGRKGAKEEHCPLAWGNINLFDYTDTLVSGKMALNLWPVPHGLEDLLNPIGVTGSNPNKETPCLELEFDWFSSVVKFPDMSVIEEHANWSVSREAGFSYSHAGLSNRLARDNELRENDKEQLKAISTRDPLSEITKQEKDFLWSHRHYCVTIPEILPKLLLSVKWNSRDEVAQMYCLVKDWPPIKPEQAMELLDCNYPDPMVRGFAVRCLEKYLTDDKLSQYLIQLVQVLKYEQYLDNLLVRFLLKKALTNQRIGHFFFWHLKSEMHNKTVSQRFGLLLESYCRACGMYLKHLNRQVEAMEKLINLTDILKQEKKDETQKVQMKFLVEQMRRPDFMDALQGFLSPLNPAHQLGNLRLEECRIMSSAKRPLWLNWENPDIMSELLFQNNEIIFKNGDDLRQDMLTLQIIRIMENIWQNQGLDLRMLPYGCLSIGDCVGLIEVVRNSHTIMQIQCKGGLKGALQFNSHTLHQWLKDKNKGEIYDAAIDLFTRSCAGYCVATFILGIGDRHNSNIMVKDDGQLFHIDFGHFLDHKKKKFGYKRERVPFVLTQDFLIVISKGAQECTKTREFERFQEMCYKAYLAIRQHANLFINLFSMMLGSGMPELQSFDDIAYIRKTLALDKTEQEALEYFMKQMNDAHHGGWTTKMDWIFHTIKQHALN
T1 sequence (P27986 whole entry partner): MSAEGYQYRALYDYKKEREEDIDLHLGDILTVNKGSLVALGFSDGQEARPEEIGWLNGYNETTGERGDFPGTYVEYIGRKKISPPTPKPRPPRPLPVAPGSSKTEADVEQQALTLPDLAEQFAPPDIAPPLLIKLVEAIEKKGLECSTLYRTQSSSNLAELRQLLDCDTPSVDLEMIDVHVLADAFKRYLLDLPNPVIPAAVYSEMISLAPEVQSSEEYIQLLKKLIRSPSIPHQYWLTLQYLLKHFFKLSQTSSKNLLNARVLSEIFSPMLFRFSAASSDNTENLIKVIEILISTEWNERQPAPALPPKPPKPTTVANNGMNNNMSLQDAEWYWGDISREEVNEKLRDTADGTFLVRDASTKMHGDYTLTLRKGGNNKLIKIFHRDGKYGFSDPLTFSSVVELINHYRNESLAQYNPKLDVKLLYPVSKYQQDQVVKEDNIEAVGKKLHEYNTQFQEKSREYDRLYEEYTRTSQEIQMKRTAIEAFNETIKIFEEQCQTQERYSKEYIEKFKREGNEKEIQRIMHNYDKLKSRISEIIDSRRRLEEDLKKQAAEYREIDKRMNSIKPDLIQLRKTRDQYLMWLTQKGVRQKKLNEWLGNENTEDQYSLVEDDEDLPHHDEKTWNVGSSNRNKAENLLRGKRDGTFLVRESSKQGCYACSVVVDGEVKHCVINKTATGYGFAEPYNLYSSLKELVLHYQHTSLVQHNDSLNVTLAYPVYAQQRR

## Cc1cc([C@@H](C)Oc2ccc(F)nc2S(N)(=O)=O)c2oc(C3CC3)c(C)c(=O)c2c1 [Example 109C, 3-[(1R)-1-(2-Cyclopropyl-3,6-dimethyl-4-oxo-chromen-8-yl)ethoxy]-6-fluoro-pyridine-2-sulfonamide]
PI3Kα E545K [1]
  IC50: < 500 nM
[2]
  microsomal CLint at 1 μM: < 50 µL/min/mg

## Cc1cc([C@@H](C)Oc2ccc(Cl)nc2C(N)=O)c2oc(-c3cncc(F)c3)c(C)c(=O)c2c1 [Example 20A, 6-Chloro-3-[(1R)-1-[2-(5-fluoro-3-pyridyl)-3,6-dimethyl-4-oxo-chromen-8-yl]ethoxy]pyridine-2-carboxamide]
PI3Kα E545K [1]
  IC50: < 500 nM
[2]
  microsomal CLint at 1 μM: < 50 µL/min/mg

## Cc1cc([C@@H](C)Oc2ccc(Cl)nc2S(N)(=O)=O)c2oc(C3CC3CO)c(C)c(=O)c2c1 (single isomer, unassigned) [Example 126C]
PI3Kα E545K [1]
  IC50: < 500 nM
PI3Kα E545K [3]
  IC50: < 500 nM

## Cc1cc([C@@H](C)Oc2ccc(Cl)nc2C(N)=O)c2oc(-c3ccc4nn(CC5(O)CC5)cc4c3)c(C)c(=O)c2c1 [Example 130C, 6-Chloro-3-[(1R)-1-[2-[2-[(1-hydroxycyclopropyl)methyl]indazol-5-yl]-3,6-dimethyl-4-oxo-chromen-8-yl]ethoxy]pyridine-2-carboxamide]
PI3Kα E545K [1]
  IC50: < 500 nM
PI3Kα E545K [3]
  IC50: < 500 nM

## Cc1cc([C@@H](C)Oc2ccc(Cl)nc2C(N)=O)c2oc(-c3ccc4nn(CCO)cc4c3)c(C)c(=O)c2c1 [Example 129C, 6-Chloro-3-[(1R)-1-[2-[2-(2-hydroxyethyl)indazol-5-yl]-3,6-dimethyl-4-oxo-chromen-8-yl]ethoxy]pyridine-2-carboxamide]
PI3Kα E545K [1]
  IC50: < 500 nM
PI3Kα E545K [3]
  IC50: < 500 nM

## Cc1cc([C@@H](C)Oc2ccc(Cl)nc2C(N)=O)c2oc(-c3ccc4nc(CCO)sc4c3)c(C)c(=O)c2c1 [Example 132C, 6-Chloro-3-[(1R)-1-[2-[2-(2-hydroxyethyl)-1,3-benzothiazol-6-yl]-3,6-dimethyl-4-oxo-chromen-8-yl]ethoxy]pyridine-2-carboxamide]
PI3Kα E545K [1]
  IC50: < 500 nM
PI3Kα E545K [3]
  IC50: < 500 nM

## Cc1cc([C@@H](C)Oc2cccnc2C(=O)NOCC2CC2)c2oc(-c3ccc4nn(C)cc4c3)c(C)c(=O)c2c1 [Example 25A, N-(Cyclopropylmethoxy)-3-[(1R)-1-[3,6-dimethyl-2-(2-methylindazol-5-yl)-4-oxo-chromen-8-yl]ethoxy]pyridine-2-carboxamide]
PI3Kα E545K [1]
  IC50: < 500 nM
PI3Kα E545K [3]
  IC50: < 500 nM

## Cc1cc([C@@H](C)Oc2ccc(Cl)nc2C(N)=O)c2oc(-c3cc4cn(C)nc4cn3)c(C)c(=O)c2c1 [Example 128A, 6-Chloro-3-[(1R)-1-[3,6-dimethyl-2-(2-methylpyrazolo[3,4-c]pyridin-5-yl)-4-oxo-chromen-8-yl]ethoxy]pyridine-2-carboxamide]
PI3Kα E545K [1]
  IC50: < 500 nM
[2]
  microsomal CLint at 1 μM: < 50 µL/min/mg

## Cc1cc([C@@H](C)Oc2ccc(Cl)nc2S(N)(=O)=O)c2oc(-c3cnn(CCC(F)F)c3)c(C)c(=O)c2c1 [Example 119C, 6-Chloro-3-[(1R)-1-[2-[1-(3,3-difluoropropyl)pyrazol-4-yl]-3,6-dimethyl-4-oxo-chromen-8-yl]ethoxy]pyridine-2-sulfonamide]
PI3Kα E545K [1]
  IC50: < 500 nM
[2]
  microsomal CLint at 1 μM: < 50 µL/min/mg
PI3Kα E545K [3]
  IC50: < 500 nM

## Cc1cc([C@@H](C)Oc2ccc(Cl)nc2C(N)=O)c2oc(-c3ccc4nn(C)cc4c3F)c(C)c(=O)c2c1 [Example 46C, 6-Chloro-3-[(1R)-1-[2-(4-fluoro-2-methyl-indazol-5-yl)-3,6-dimethyl-4-oxo-chromen-8-yl]ethoxy]pyridine-2-carboxamide]
PI3Kα E545K [1]
  IC50: < 500 nM
[2]
  microsomal CLint at 1 μM: < 50 µL/min/mg

## Cc1cc([C@@H](C)Oc2ccc(Cl)nc2C(N)=O)c2oc(-c3ccc4nn(C(F)F)cc4c3)c(C)c(=O)c2c1 [Example 66A, 6-Chloro-3-[(1R)-1-[2-[2-(difluoromethyl)indazol-5-yl]-3,6-dimethyl-4-oxo-chromen-8-yl]ethoxy]pyridine-2-carboxamide]
PI3Kα E545K [1]
  IC50: < 500 nM
[2]
  microsomal CLint at 1 μM: < 50 µL/min/mg
PI3Kα E545K [3]
  IC50: < 500 nM

## Cc1cc([C@@H](C)Oc2ccc(Cl)nc2C(N)=O)c2oc(-c3ccc4nn(C)cc4n3)c(C)c(=O)c2c1 [Example 141A, 6-Chloro-3-[(1R)-1-[3,6-dimethyl-2-(2-methylpyrazolo[4,3-b]pyridin-5-yl)-4-oxo-chromen-8-yl]ethoxy]pyridine-2-carboxamide]
PI3Kα E545K [1]
  IC50: < 500 nM
[2]
  microsomal CLint at 1 μM: < 50 µL/min/mg

## COCCn1cc(-c2oc3c([C@@H](C)Oc4ccc(Cl)nc4S(N)(=O)=O)cc(C)cc3c(=O)c2C)cn1 [Example 117C, 6-Chloro-3-[(1R)-1-[2-[1-(2-methoxyethyl)pyrazol-4-yl]-3,6-dimethyl-4-oxo-chromen-8-yl]ethoxy]pyridine-2-sulfonamide]
PI3Kα E545K [1]
  IC50: < 500 nM
PI3Kα E545K [3]
  IC50: < 500 nM

## CONC(=O)c1ncccc1O[C@H](C)c1cc(C)cc2c(=O)c(C)c(-c3ccc4nn(C)cc4c3)oc12 [Example 23A, 3-[(1R)-1-[3,6-Dimethyl-2-(2-methylindazol-5-yl)-4-oxo-chromen-8-yl]ethoxy]-N-methoxy-pyridine-2-carboxamide]
PI3Kα E545K [1]
  IC50: < 500 nM
[2]
  microsomal CLint at 1 μM: < 50 µL/min/mg

## Cc1cc([C@@H](C)Oc2ccc(Cl)cc2S(N)(=O)=O)c2oc(-c3ccccc3)c(C)c(=O)c2c1 [Example 98C, 5-Chloro-2-[(1R)-1-(3,6-dimethyl-4-oxo-2-phenyl-chromen-8-yl)ethoxy]benzenesulfonamide]
PI3Kα E545K [1]
  IC50: < 500 nM
PI3Kα E545K [3]
  IC50: < 500 nM

## Cc1cc([C@@H](C)Oc2ccc(Cl)nc2S(N)(=O)=O)c2oc(-c3cn[nH]c3)c(C)c(=O)c2c1 [Example 115C, 6-Chloro-3-[(1R)-1-[3,6-dimethyl-4-oxo-2-(1H-pyrazol-4-yl)chromen-8-yl]ethoxy]pyridine-2-sulfonamide]
PI3Kα E545K [1]
  IC50: < 500 nM
[2]
  microsomal CLint at 1 μM: < 50 µL/min/mg
PI3Kα E545K [3]
  IC50: < 500 nM

## Cc1cc([C@@H](C)Oc2ccc(Cl)nc2S(N)(=O)=O)c2oc(-c3ccc4nc(C)cn4n3)c(C)c(=O)c2c1 [Example 19C, 6-Chloro-3-[(1R)-1-[3,6-dimethyl-2-(2-methylimidazo[1,2-b]pyridazin-6-yl)-4-oxo-chromen-8-yl]ethoxy]pyridine-2-sulfonamide]
PI3Kα E545K [1]
  IC50: < 500 nM
[2]
  microsomal CLint at 1 μM: < 50 µL/min/mg

## Cc1cc([C@@H](C)Oc2ccc(Cl)nc2C(N)=O)c2oc(-c3ccc4nn([C@H]5C[C@@H](O)C5)cc4c3)c(C)c(=O)c2c1 [Example 133C, 6-Chloro-3-[(1R)-1-[2-[2-(3-hydroxycyclobutyl)indazol-5-yl]-3,6-dimethyl-4-oxo-chromen-8-yl]ethoxy]pyridine-2-carboxamide]
PI3Kα E545K [1]
  IC50: < 500 nM
PI3Kα E545K [3]
  IC50: < 500 nM
